In PMC4780864, “Family-wide Structural Analysis of Human Numb-Associated Protein Kinases” (Structure(London, England:1993), 2016):

Tests used:
Test in all cases: biochemical
[1] = molecular target: T1, MPSK1 (Homo sapiens, UniProt O75716); set-up: Thermal shift assay (DSF, SYPRO Orange), 2 uM kinase domain, mean delta Tm of triplicates versus DMSO; settings: for ΔTm at 12.5 µM: read-out: MPSK1
T1 construct: gene STK16; catalytic domain-containing construct
Protocol: (§1) All measurements were performed in triplicate and mean values were reported for all compounds (Table S1). […] However, NAKs are often omitted from selectivity panels, including commercial screens.

[2] = molecular target: T2, BIKE (Homo sapiens, UniProt Q9NSY1); set-up: Thermal shift assay (DSF, SYPRO Orange), 2 uM kinase domain, mean delta Tm of triplicates versus DMSO; settings: read-out: BIKE
T2 construct: gene BMP2K; catalytic domain-containing construct
Protocol: as §1

[3] = molecular target: T3, GAK (Homo sapiens, UniProt O14976); set-up: Thermal shift assay (DSF, SYPRO Orange), 2 uM kinase domain, mean delta Tm of triplicates versus DMSO; settings: read-out: GAK
T3 construct: catalytic domain-containing construct
T3 sequence (O14976 1-1311): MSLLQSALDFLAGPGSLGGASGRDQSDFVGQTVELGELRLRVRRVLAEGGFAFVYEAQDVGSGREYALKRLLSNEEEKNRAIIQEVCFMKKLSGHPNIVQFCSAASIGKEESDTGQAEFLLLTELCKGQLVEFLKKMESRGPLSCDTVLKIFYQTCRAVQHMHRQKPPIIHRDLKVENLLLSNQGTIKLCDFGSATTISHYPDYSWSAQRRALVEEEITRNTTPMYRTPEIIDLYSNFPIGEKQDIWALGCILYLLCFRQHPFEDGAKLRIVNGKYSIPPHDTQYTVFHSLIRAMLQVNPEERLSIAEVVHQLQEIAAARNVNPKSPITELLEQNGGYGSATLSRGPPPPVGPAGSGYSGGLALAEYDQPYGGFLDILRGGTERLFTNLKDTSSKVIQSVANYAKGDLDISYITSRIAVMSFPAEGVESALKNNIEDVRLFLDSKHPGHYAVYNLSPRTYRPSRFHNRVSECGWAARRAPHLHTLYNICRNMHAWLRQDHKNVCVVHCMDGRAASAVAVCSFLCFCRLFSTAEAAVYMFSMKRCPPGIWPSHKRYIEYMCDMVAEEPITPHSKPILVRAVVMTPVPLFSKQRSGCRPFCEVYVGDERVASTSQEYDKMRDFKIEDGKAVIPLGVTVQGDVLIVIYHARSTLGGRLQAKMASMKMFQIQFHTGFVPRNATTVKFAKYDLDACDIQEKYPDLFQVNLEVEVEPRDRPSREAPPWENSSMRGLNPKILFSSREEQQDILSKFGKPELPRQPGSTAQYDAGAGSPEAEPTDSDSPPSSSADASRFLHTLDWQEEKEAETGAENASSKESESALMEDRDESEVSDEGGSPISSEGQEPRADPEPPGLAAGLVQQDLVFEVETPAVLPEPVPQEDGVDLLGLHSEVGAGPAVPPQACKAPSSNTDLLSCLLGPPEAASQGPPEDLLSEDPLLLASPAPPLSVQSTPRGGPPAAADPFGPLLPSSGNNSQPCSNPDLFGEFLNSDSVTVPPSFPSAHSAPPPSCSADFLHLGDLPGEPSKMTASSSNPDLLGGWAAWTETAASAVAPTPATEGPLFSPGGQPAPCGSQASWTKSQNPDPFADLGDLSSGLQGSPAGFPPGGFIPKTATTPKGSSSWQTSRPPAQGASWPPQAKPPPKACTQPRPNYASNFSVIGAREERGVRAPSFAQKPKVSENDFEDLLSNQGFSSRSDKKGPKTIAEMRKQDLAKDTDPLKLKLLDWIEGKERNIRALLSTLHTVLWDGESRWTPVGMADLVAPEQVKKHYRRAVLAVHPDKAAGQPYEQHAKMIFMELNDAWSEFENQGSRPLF
Protocol: as §1

[4] = molecular target: AAK1 (Homo sapiens, UniProt Q2M2I8); set-up: kinase domain; Thermal shift assay (DSF, SYPRO Orange), 2 uM kinase domain, mean delta Tm of triplicates versus DMSO; settings: read-out: AAK1
Protocol: as §1

T1 sequence (O75716 whole entry, the tested form may be a part): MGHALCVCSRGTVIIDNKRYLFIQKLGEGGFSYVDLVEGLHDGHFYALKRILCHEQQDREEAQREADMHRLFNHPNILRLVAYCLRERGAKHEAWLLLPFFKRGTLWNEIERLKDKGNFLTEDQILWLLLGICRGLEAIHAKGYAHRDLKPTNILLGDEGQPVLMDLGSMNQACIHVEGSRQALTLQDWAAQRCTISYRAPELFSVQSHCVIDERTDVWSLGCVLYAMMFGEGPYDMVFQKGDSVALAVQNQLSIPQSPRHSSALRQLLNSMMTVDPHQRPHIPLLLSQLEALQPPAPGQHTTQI
T2 sequence (Q9NSY1 whole entry, the tested form may be a part): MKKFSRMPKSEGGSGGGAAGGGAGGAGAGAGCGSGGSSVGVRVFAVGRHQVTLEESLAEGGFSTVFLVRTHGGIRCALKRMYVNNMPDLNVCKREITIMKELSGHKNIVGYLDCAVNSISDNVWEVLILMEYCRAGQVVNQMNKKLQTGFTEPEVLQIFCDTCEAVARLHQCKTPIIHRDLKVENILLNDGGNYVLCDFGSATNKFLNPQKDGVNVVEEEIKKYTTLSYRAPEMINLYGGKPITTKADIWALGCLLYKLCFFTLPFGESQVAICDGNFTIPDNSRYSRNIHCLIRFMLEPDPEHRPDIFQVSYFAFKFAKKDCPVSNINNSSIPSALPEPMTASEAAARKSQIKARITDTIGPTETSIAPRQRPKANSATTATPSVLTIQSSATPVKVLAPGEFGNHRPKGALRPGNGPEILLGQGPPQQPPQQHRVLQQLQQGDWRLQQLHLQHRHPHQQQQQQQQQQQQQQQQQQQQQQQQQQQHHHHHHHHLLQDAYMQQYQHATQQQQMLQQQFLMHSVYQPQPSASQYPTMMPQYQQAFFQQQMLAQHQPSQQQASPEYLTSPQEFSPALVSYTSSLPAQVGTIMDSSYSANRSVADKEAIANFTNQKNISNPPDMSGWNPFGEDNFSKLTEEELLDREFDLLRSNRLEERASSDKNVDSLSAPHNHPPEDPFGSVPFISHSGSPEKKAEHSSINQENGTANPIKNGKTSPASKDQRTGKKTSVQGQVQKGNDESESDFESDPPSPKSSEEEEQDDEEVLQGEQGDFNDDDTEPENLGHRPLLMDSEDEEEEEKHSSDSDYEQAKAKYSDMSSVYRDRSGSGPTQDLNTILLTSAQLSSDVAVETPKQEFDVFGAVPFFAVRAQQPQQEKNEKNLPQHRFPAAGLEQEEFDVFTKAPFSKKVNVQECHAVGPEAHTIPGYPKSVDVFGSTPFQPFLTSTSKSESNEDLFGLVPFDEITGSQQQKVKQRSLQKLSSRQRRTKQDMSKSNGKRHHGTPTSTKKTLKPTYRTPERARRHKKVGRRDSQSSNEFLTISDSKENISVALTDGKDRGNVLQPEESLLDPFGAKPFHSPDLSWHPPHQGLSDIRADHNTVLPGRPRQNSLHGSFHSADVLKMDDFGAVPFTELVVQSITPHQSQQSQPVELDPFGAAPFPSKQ
Chain of AAK1 (Q2M2I8 27-365 limits assumed): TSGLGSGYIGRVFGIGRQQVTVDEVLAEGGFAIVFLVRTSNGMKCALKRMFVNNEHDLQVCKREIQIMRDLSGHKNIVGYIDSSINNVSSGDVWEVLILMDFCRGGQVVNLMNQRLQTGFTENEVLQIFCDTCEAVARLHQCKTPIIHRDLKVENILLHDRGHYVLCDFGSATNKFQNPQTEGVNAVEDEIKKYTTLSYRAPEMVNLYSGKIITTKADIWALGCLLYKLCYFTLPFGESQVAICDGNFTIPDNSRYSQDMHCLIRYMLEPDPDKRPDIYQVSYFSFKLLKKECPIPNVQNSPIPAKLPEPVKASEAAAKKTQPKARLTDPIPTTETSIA

| Compound | ΔTm at 12.5 µM [1] | ΔTm at 12.5 µM [2] | ΔTm at 12.5 µM [3] | ΔTm at 12.5 µM [4] | MPSK1 ([1]; 12.5 µM) |
| --- | --- | --- | --- | --- | --- |
| Cc1[nH]c(/C=C2\C(=O)Nc3ccccc32)c(C)c1CCC(=O)O [Orantinib] | 5.87 °C | 12 °C | 3.99 °C | 6.55 °C |  |
| CN(c1ccccc1CNc1nc(Nc2ccc3c(c2)CC(=O)N3)ncc1C(F)(F)F)S(C)(=O)=O [PF 431396] | 13.9 °C | 9.5 °C | 5.02 °C | 4.81 °C |  |
| CC(=O)c1c(C)c2cnc(Nc3ccc(N4CCNCC4)cn3)nc2n(C2CCCC2)c1=O [Palbociclib] | 7.72 °C | 5.02 °C | 0.733 °C | 2.94 °C |  |
| Cc1ccc(Nc2nccc(N(C)c3ccc4c(C)n(C)nc4c3)n2)cc1S(N)(=O)=O [Pazopanib] | 7.31 °C | 7.25 °C | 2.72 °C | 3.85 °C |  |
| COc1ccc(Cl)c(Nc2nc3ccccc3nc2NS(=O)(=O)c2cccc(NC(=O)C(C)(C)N)c2)c1 [Pilaralisib] | 0.39 °C | 0.99 °C | -0.55 °C | 0.00667 °C |  |
| O=C(NC[C@H](O)CO)c1ccncc1Nc1ccc(I)cc1F [Pimasertib] | 0.313 °C | 0.36 °C | -0.59 °C | 0.0267 °C |  |
| Cc1ccc(C(=O)Nc2ccc(CN3CCN(C)CC3)c(C(F)(F)F)c2)cc1C#Cc1cnc2cccnn12 [Ponatinib] | 2.24 °C | 2.93 °C | 13 °C | 2.99 °C |  |
| CC(C)(C)c1cc(NC(=O)Nc2ccc(-c3cn4c(n3)sc3cc(OCCN5CCOCC5)ccc34)cc2)no1 [Quizartinib] | 0.333 °C | 0.54 °C | 0.0333 °C | 0.43 °C |  |
| Cc1cnc(NC(=O)Nc2cc(Br)c(C)cc2OC[C@@H]2CNCCO2)cn1 [Rabusertib] | 2.49 °C | 3.04 °C | -0.263 °C | 1.55 °C |  |
| CC(C)(C)Cn1c(N)nc2ccc(-c3[nH]c(C(C)(C)C)nc3-c3ccc(F)cc3)nc21 [Ralimetinib] | 1.32 °C | 1.12 °C | 9.03 °C | 0.397 °C |  |
| CNC(=O)c1cc(Oc2ccc(NC(=O)Nc3cc(C(C)(C)C)nn3-c3ccc4ncccc4c3)c(F)c2)ccn1 [Rebastinib] | 0.907 °C | 0.707 °C | 9.94 °C | 0.473 °C |  |
| COc1cc(F)c(F)c(Nc2ccc(I)cc2F)c1NS(=O)(=O)C1(C[C@H](O)CO)CC1 [Refametinib] | 0.663 °C | -0.02 °C | -1.26 °C | -0.0333 °C |  |
| CNC(=O)c1cc(Oc2ccc(NC(=O)Nc3ccc(Cl)c(C(F)(F)F)c3)c(F)c2)ccn1 [Regorafenib] | 0.88 °C | 0.423 °C | 5.87 °C | 1.02 °C |  |
| COc1cc(OC)c(/C=C/S(=O)(=O)Cc2ccc(OC)c(NCC(=O)O)c2)c(OC)c1 [Rigosertib] | 0.583 °C | 0.203 °C | -0.48 °C | 0.19 °C |  |
| CN(C)C[C@@H]1CCn2cc(c3ccccc32)C2=C(C(=O)NC2=O)c2cn(c3ccccc23)CCO1 [Ruboxistaurin] | 1.86 °C | 9.4 °C | 1.03 °C | 5.19 °C |  |
| N#CC[C@H](C1CCCC1)n1cc(-c2ncnc3[nH]ccc23)cn1 [Ruxolitinib] |  | 8.65 °C | 2.88 °C | 6.18 °C | 5.233 °C |
| CN1CCN(CCOc2cc(OC3CCOCC3)c3c(Nc4c(Cl)ccc5c4OCO5)ncnc3c2)CC1 [Saracatinib] | 0.66 °C | 4.59 °C | 7.95 °C | 0.31 °C |  |
| CC[C@H](CO)Nc1nc(NCc2ccccc2)c2ncn(C(C)C)c2n1 [Seliciclib] | 2.4 °C | 0.43 °C | -0.34 °C | 0.393 °C |  |
| Cn1cnc2c(F)c(Nc3ccc(Br)cc3Cl)c(C(=O)NOCCO)cc21 [Selumetinib] | 0.797 °C | 0.227 °C | -0.847 °C | 0.343 °C |  |
| C=CCN(/C=C1/C(=O)O[C@H](COC)[C@@]2(C)C1=C(O)C(=O)C1=C2[C@H](OC(C)=O)C[C@]2(C)C(=O)CC[C@@H]12)CC=C [Sonolisib] | 0.147 °C | -1.36 °C | 0.82 °C | -0.183 °C |  |
| CNC(=O)c1cc(Oc2ccc(NC(=O)Nc3ccc(Cl)c(C(F)(F)F)c3)cc2)ccn1 [Sorafenib] | 0.873 °C | 0.73 °C | 5.42 °C | 1.03 °C |  |

Other lines, results leading:

| ΔTm at 12.5 µM [1] | ΔTm at 12.5 µM [2] | ΔTm at 12.5 µM [3] | ΔTm at 12.5 µM [4] | MPSK1 ([1]; 12.5 µM) | Compound |
| --- | --- | --- | --- | --- | --- |
| 0.92 °C | 0.31 °C | -0.547 °C | 0.0767 °C |  | COc1cccc2cc(-c3nc([C@H]4CC[C@H](C(=O)O)CC4)n4ncnc(N)c34)[nH]c12 [OSI-027] |
| 6.45 °C | 19.1 °C | 9.49 °C | 17.8 °C |  | Cn1cc(-c2[nH]c3cc(NC(=O)[C@H](N)C4CCCCC4)cc4c3c2C=NNC4=O)cn1 [PF-00477736] |
| 1.83 °C | 1.04 °C | 6.13 °C | 1.68 °C |  | Nc1nccc(-c2c(-c3ccc(F)cc3)ncn2C2CCCCC2)n1 [PF-670462] |
| 8.65 °C | 10.6 °C | 4.73 °C | 5.65 °C |  | Cc1nc(Nc2n[nH]c3c2CN(C(=O)N[C@H](CN(C)C)c2ccccc2)C3(C)C)c2sccc2n1 [PF-03758309] |
| 1.43 °C | 0.623 °C | -0.593 °C | 0.327 °C |  | COc1ccc(-c2cc3c(C)nc(N)nc3n([C@H]3CC[C@H](OCCO)CC3)c2=O)cn1 [PF-04691502] |
| 1.04 °C | 0.45 °C | -0.243 °C | 0.437 °C |  | CCc1cncnc1N1CCN(Cc2nc3ccc(C(F)(F)F)cc3[nH]2)CC1 [PF-04708671] |
| 0.933 °C | 0.437 °C | -0.663 °C | 0.283 °C |  | Nc1ncnc2c1c(COc1cccc(Cl)c1)nn2C1CCOCC1 [PF-4800567] |
| 9.97 °C | 7.9 °C | 3.07 °C | 5 °C |  | Cc1ccc([N+](=O)[O-])cc1S(=O)(=O)N(C)/N=C/c1cnc2ccc(Br)cn12 [PIK-75] |
| 1.67 °C | 1.07 °C | 7.37 °C | 1.45 °C |  | Cn1c(Nc2ccc(C(F)(F)F)cc2)nc2cc(Oc3ccnc(-c4ncc(C(F)(F)F)[nH]4)c3)ccc21 [RAF265] |
| 0.0567 °C | 0.9 °C | 0.343 °C | 0.0767 °C |  | O=C(Nc1ccc2[nH]nc(-c3ccncc3)c2c1)[C@@H]1CCN(CC(=O)N2CCN(c3ccc(-c4ncccn4)cc3)CC2)C1 [SCH772984] |
| 3.24 °C | 10.2 °C | 3.81 °C | 6.74 °C |  | CN1CCC(CNc2ccc3ncc(-c4cccc(OC(F)(F)F)c4)n3n2)CC1 [SGI-1776] |
| 3.53 °C | 1.11 °C | 0.0467 °C | 0.69 °C |  | CC(C)(C)c1cnc(CSc2cnc(NC(=O)C3CCNCC3)s2)o1 [SNS-032] |
| 0.11 °C | 14.2 °C | 0.24 °C | 6.88 °C |  | Oc1c2ccccc2c2c3c(cccc13)N=N2 [SP600125] |
